Where “and” joins values, the source holds several entries; their conditions need not be identical. Equal values may be shown once. These antisense oligonucleotides have a phosphorothioate backbone; sugars and methylation of C are not fully specified.
These sequences were tested against BIRC3. Details: ASO.
Further: test concentration or dose not given here.

Compared with TAAAACCCTTCACAGAAG, TACAATTTCAATAATGCT is lower in remaining target (mRNA or protein) (fraction of control): no less than 1 for the first, 0.62 for the second.

Going from TCATCTCCTGGGCTGTCT to TGAAGTGTCTTGAAGCTG, the remaining target (mRNA or protein) (fraction of control) rises from 0.6 to no less than 1.

Going from TGGCTTGAACTTGACGGA to TGTAGTGCTACCTCTTTT, the remaining target (mRNA or protein) (fraction of control) falls from no less than 1 to 0.31.

First: TGTGTGACTCATGAAGCT
Second: TTAACGGAATTTAGACTC
The remaining target (mRNA or protein) (fraction of control) of the first is lower: 0.77 for the first, no less than 1 for the second.

First: TTAAGGAAGAAATACACA
Second: TTCAGTGGCATTCAATCA
The remaining target (mRNA or protein) (fraction of control) of the first is higher: no less than 1 for the first, 0.77 for the second.

First: TTTCTCTCTCCTCTTCCC
Second: TTTGACATCATCACTGTT
The remaining target (mRNA or protein) (fraction of control) of the first is lower: 0.9 for the first, no less than 1 for the second.

What follows are sequences tested against SMAD4. Details: ASO.

AAAGCAGAAGAAAAGTGA and AACACCAATACTCAGGAG cannot be ordered by remaining target (mRNA or protein) (fraction of control): no less than 1 for the first, no less than 1 for the second.

First: AACATCACCTTCACCTTT
Second: AATCCTTTCCGACCAGCC
The remaining target (mRNA or protein) (fraction of control) of the first is higher: 0.45 for the first, 0.26 for the second.

Going from ACAGAAGAATACAACTAC to ACCTTTCCCTATGAATGA, the remaining target (mRNA or protein) (fraction of control) falls from no less than 1 to 0.65.

Going from ACGATTACTTGGTGGATG to ACTCTCTCCACCTTGTCT, the remaining target (mRNA or protein) (fraction of control) falls from 0.88 to 0.57.

AGACACTATCACATTTTA and ATCCTTTGGAAACAGTGA cannot be ordered by remaining target (mRNA or protein) (fraction of control): no less than 1 for the first, no less than 1 for the second.

CAATGGCTTCTGTCCTGT and CAGGTGGTAGTGCTGTTA cannot be ordered by remaining target (mRNA or protein) (fraction of control): no less than 1 for the first, no less than 1 for the second.

CAGTAAATCCATTCTGCT and CAGTAACAATAGGGCAGC cannot be ordered by remaining target (mRNA or protein) (fraction of control): no less than 1 for the first, no less than 1 for the second.

First: CATACATAACAGGTGAAG
Second: CATACTTGATGGAGCATT
The remaining target (mRNA or protein) (fraction of control) of the first is lower: 0.91 for the first, no less than 1 for the second.

Compared with CATAGGCGGGTGGTGCTG, CCTTCACTATGGCTGCCC is lower in remaining target (mRNA or protein) (fraction of control): no less than 1 for the first, 0.3 for the second.

CTGTATGGTAACACATTT and GAATGAAGGAAAAGAAAT cannot be ordered by remaining target (mRNA or protein) (fraction of control): no less than 1 for the first, no less than 1 for the second.

GAATTTCAATCCAGCAAG and GACAGGCATCATTACTTG cannot be ordered by remaining target (mRNA or protein) (fraction of control): no less than 1 for the first, no less than 1 for the second.

GATGACACTGACGCAAAT and GGCAGCAAACACATTTTC cannot be ordered by remaining target (mRNA or protein) (fraction of control): no less than 1 for the first, no less than 1 for the second.

GTAGTCCACCATCCTGAT and GTGGACAACGATGGCTGT cannot be ordered by remaining target (mRNA or protein) (fraction of control): no less than 1 for the first, no less than 1 for the second.

GTGTTTCTTTGATGCTCT and GTTTCTCCTAATCTTCAA cannot be ordered by remaining target (mRNA or protein) (fraction of control): no less than 1 for the first, no less than 1 for the second.

Compared with TAAAATCAGCAATACTGG, TACAACTCGTTCGTAGTG is higher in remaining target (mRNA or protein) (fraction of control): 0.79 for the first, no less than 1 for the second.

TAGGTAGAGTGACGCTGC and TCTGTCTAAGTAGTAACT cannot be ordered by remaining target (mRNA or protein) (fraction of control): no less than 1 for the first, no less than 1 for the second.

These sequences were tested against TNF. Details: ASO.

First: CCTCTTTCCCTTACCCTCCTG
Second: CTGGTCCCTTGGTGTCCTCGC
The remaining target (mRNA or protein) (fraction of control) of the first is lower: 0.1 for the first, 0.69 for the second.

Compared with CTGGTCTTTCCACGTCCCATT, CTTCTTCCCTGTTCCCCTGGC is higher in remaining target (mRNA or protein) (fraction of control): 0.17 for the first, 0.2 for the second.

Compared with CTTGAGCTCAGCTCCCTCAGG, GAAGCCTCCCCGCTCTTTGCC is lower in remaining target (mRNA or protein) (fraction of control): 0.45 for the first, 0.25 for the second.

First: GATCATGCTTTCCGTGCTCAT
Second: GCAGCCTTGTCCCTTGAAGAG
The remaining target (mRNA or protein) (fraction of control) of the first is higher: 0.94 for the first, 0.73 for the second.

First: GCCTGAAGACAGCTTCCCAAC
Second: GCTGAGCAGGTCCCCCTTCTC
The remaining target (mRNA or protein) (fraction of control) of the first is lower: 0.24 for the first, 0.8 for the second.

Going from GCTGGAAGACTCCTCCCAGGT to GGCACTCACCTCCTCCTTGTT, the remaining target (mRNA or protein) (fraction of control) rises from 0.35 to 0.94.

GGGAAATTCCCAGGACCAGGG and GGGATAGCTGGTAGTTTAG cannot be ordered by remaining target (mRNA or protein) (fraction of control): no less than 1 for the first, no less than 1 for the second.

Going from GGTCTCCCTCCCCAACTCTCC to GGTTCCGTAAGGAAGGCTGG, the remaining target (mRNA or protein) (fraction of control) rises from 0.18 to 0.94.

First: GTCGCCTCACAGAGCAATGAC
Second: GTTTCCCCTCCATCTCCCTCC
The remaining target (mRNA or protein) (fraction of control) of the first is higher: no less than 1 for the first, 0.26 for the second.

Going from TAGACGATAAAGGGGTCAGAG to TATCTCCCTCGTCTCCCATCT, the remaining target (mRNA or protein) (fraction of control) falls from no less than 1 to 0.27.

Compared with TCCACTCCCCCGATCCACTCA, TTCCCAACGCTGGGTCCTCCA is higher in remaining target (mRNA or protein) (fraction of control): 0.11 for the first, no less than 1 for the second.

Going from TTCTTGCCCTCCCTCCCTACT to TTGCTGTTCTCCCTCCTGGCT, the remaining target (mRNA or protein) (fraction of control) rises from 0.12 to 0.15.

With TGATCCACTCCCCCCTCCACT the remaining target (mRNA or protein) (fraction of control) was 0.06 and 0.1.

Source: the OligoGym collection
